# Source: ChEMBL document CHEMBL4339189, “Dissymmetric pyridyl-substituted 3,5-bis(arylidene)-4-piperidones as anti-hepatoma agents by inhibiting NF-κB pathway activation” (Eur J Med Chem, 2019)
# Active and inactive are the calls of the source. The calls are words filed in the database; no cut-off is given here.
# Columns and labels:
# [1] = system: HepG2; experiment: Antitumor activity against human HepG2 cells xenografted in Balb/c nude mouse assessed as induction of incomplete cells at 10 mg/kg, ip administered every 2 days for 20 days and measured every 2 days by H and E staining based assay; type: functional, organism-based
# [2] = system: SMMC-7721; experiment: Cytotoxicity against human SMMC7721 cells assessed as reduction in cell viability incubated for 24 hrs by MTT assay; type: functional, cell-based
# [3] = system: HepG2; experiment: Induction of apoptosis in human HepG2 cells assessed as increase in apoptotic cell population at 4.0 uM incubated for 24 hrs by Annexin V-FITC/propidium iodide staining based flow cytometry relative to control; type: functional
# [4] = system: HepG2; experiment: Induction of apoptosis in human HepG2 cells assessed as increase in apoptotic cell population at 2.0 uM incubated for 24 hrs by Annexin V-FITC/propidium iodide staining based flow cytometry relative to control; type: functional
# [5] = system: HepG2; experiment: Induction of apoptosis in human HepG2 cells xenografted in Balb/c nude mouse assessed as reduction in Bcl-2 protein expression at 1 mg/kg, ip administered every 2 days for 20 days and measured every 2 days by immunohistochemistry; type: functional, organism-based
# [6] = Cytotoxicity against human HHL5 cells assessed as reduction in cell viability incubated for 24 hrs by MTT assay; type: cell-based; details: HHL-5, 24 h
# [7] = system: HepG2; experiment: Induction of apoptosis in human HepG2 cells assessed as increase in apoptotic cell population at 4.0 uM incubated for 24 hrs by Annexin V-FITC/propidium iodide staining based flow cytometry; type: functional
# [8] = system: HepG2; experiment: Antitumor activity against human HepG2 cells xenografted in Balb/c nude mouse assessed as effect on tumor volume level at 1 mg/kg, ip administered every 2 days for 20 days and measured every 2 days; type: functional, organism-based
# [9] = system: QGY-7703; experiment: Induction of apoptosis in human QGY7703 cells assessed as increase in apoptotic cell population at 4.0 uM incubated for 24 hrs by Annexin V-FITC/propidium iodide staining based flow cytometry relative to control; type: functional
# [10] = system: HepG2; experiment: Cytotoxicity against human HepG2 cells assessed as reduction in cell viability incubated for 24 hrs by MTT assay; type: functional, cell-based
# [11] = biological target: T1, NF-kappa-B inhibitor alpha (Mus musculus) (UniProt Q9Z1E3); experiment: Inhibition of NFkappaB signalling activation in mouse RAW264.7 cells assessed as reduction in LPS-induced IkBalpha phosphorylation at 1 to 4 uM incubated for 2 hrs after pre-incubation with LPS for 15 mins by Western blot analysis; type: cell-based
# T1 sequence (whole entry): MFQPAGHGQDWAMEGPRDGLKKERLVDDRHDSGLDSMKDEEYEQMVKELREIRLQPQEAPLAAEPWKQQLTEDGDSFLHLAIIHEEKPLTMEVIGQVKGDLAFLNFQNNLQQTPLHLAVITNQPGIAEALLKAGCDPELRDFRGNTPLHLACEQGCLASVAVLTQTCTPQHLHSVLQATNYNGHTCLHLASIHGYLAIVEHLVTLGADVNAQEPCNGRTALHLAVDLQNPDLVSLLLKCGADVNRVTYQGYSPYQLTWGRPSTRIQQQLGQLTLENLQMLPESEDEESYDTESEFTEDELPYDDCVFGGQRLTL
# [12] = biological target: Transcription factor p65 (Mus musculus) (UniProt Q04207); experiment: Inhibition of LPS-induced NFkappaB p65 nuclear translocation in mouse RAW264.7 cells at 4 uM incubated for 2 hrs after pre-incubation with LPS for 15 mins by DAPI staining-based immunofluorescence assay; type: cell-based
# Sequence of Transcription factor p65 (Mus musculus) (Q04207 whole entry): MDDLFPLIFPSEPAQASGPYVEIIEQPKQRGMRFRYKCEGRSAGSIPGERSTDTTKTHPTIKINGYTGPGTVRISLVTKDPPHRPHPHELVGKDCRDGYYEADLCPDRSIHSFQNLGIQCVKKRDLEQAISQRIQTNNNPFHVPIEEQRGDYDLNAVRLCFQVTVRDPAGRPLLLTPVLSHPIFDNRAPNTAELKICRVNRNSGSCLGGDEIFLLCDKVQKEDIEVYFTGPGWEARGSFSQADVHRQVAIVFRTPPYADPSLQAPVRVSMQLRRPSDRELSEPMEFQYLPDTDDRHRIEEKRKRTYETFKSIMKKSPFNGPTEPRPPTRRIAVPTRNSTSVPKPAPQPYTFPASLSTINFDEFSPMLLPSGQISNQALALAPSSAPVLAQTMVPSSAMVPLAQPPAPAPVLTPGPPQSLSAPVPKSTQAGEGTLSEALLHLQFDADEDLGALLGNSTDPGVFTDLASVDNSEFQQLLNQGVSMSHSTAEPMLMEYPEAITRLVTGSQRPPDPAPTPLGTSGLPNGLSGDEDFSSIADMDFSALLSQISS
# [13] = system: SMMC-7721; experiment: Induction of apoptosis in human SMMC7721 cells assessed as increase in apoptotic cell population at 4.0 uM incubated for 24 hrs by Annexin V-FITC/propidium iodide staining based flow cytometry relative to control; type: functional
# [14] = system: Mus musculus; experiment: Antiinflammatory activity in human HepG2 cells xenografted Balb/c nude mouse assessed as reduction in TNFalpha protein expression at 1 mg/kg, ip administered every 2 days for 20 days and measured every 2 days by immunohistochemistry; type: functional, organism-based
# [15] = biological target: Transcription factor p65 (Homo sapiens) (UniProt Q04206); experiment: Inhibition of LPS-induced NFkappaB p65 nuclear translocation in human HepG2 cells at 4 uM incubated for 2 hrs after pre-incubation with LPS for 15 mins by DAPI staining-based immunofluorescence assay; type: cell-based
# Sequence of Transcription factor p65 (Homo sapiens) (Q04206 whole entry): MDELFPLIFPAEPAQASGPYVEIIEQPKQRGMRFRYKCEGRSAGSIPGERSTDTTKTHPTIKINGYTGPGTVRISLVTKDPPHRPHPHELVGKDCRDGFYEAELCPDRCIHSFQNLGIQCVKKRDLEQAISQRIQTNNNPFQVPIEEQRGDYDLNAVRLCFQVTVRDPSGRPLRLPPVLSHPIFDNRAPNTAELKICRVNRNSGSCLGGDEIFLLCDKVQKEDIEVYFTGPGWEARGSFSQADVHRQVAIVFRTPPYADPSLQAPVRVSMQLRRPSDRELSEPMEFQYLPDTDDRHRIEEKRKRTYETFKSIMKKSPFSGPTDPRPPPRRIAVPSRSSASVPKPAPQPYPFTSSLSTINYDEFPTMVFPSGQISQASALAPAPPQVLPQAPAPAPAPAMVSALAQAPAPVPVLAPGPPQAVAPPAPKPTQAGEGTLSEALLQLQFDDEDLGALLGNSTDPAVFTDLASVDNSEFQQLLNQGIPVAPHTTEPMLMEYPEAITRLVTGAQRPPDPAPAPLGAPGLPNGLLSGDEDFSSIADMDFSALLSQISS
# [16] = system: HepG2; experiment: Induction of apoptosis in human HepG2 cells xenografted in Balb/c nude mouse assessed as reduction in Bcl-2 protein expression at 10 mg/kg, ip administered every 2 days for 20 days and measured every 2 days by immunohistochemistry; type: functional, organism-based
# [17] = system: RAW264.7; experiment: Antiinflammatory activity in mouse RAW264.7 cells assessed as inhibition of LPS-stimulated IL-6 production 6.0 uM preincubated for 2 hrs followed by LPS stimulaton measured after 22 hrs by ELISA relative to control; type: functional
# [18] = system: RAW264.7; experiment: Cytotoxicity against mouse RAW264.7 cells assessed as reduction in cell viability at 6.0 uM incubated for 24 hrs by MTT assay; type: cell-based; details: raw264.7, 24 h
# [19] = system: HepG2; experiment: Induction of apoptosis in human HepG2 cells assessed as increase in cleaved caspase-3 expression up to 4 uM after 24 hrs by Western blot analysis; type: functional, cell-based
# [20] = system: HepG2; experiment: Antitumor activity against human HepG2 cells xenografted in Balb/c nude mouse assessed as induction of wrinkled abnormalities on cell morphology at 10 mg/kg, ip administered every 2 days for 20 days and measured every 2 days by H and E staining based assay; type: functional, organism-based
# [21] = system: SMMC-7721; experiment: Induction of apoptosis in human SMMC7721 cells assessed as increase in apoptotic cell population at 4.0 uM incubated for 24 hrs by Annexin V-FITC/propidium iodide staining based flow cytometry; type: functional
# [22] = system: L02; experiment: Cytotoxicity against human LO2 cells assessed as reduction in cell viability incubated for 24 hrs by MTT assay; type: cell-based; details: L02, 24 h
# [23] = system: QGY-7703; experiment: Cytotoxicity against human QGY7703 cells assessed as reduction in cell viability incubated for 24 hrs by MTT assay; type: functional, cell-based
# [24] = Toxicity in Balb/c nude mouse xenografted with human HepG2 cells assessed as increase in body weight at 0.1 to 10 mg/kg, ip administered every 2 days for 20 days and measured every 2 days; type: organism-based; details: in vivo
# [25] = system: HepG2; experiment: Induction of apoptosis in human HepG2 cells assessed as increase in Bax expression up to 4 uM after 24 hrs by Western blot analysis; type: functional, cell-based
# [26] = system: QGY-7703; experiment: Induction of apoptosis in human QGY7703 cells assessed as increase in apoptotic cell population at 2.0 uM incubated for 24 hrs by Annexin V-FITC/propidium iodide staining based flow cytometry relative to control; type: functional
# [27] = system: HepG2; experiment: Induction of apoptosis in human HepG2 cells xenografted in Balb/c nude mouse assessed as reduction in Bcl-2 protein expression at 0.1 mg/kg, ip administered every 2 days for 20 days and measured every 2 days by immunohistochemistry; type: functional, organism-based
# [28] = system: QGY-7703; experiment: Induction of apoptosis in human QGY7703 cells assessed as increase in apoptotic cell population at 4.0 uM incubated for 24 hrs by Annexin V-FITC/propidium iodide staining based flow cytometry; type: functional
# [29] = biological target: Transcription factor p65 (Mus musculus) (UniProt Q04207); experiment: Inhibition of NFkappaB activation in mouse RAW264.7 cells assessed as reduction in LPS-induced p65 phosphorylation at 1 to 4 uM incubated for 2 hrs after pre-incubation with LPS for 15 mins by Western blot analysis; type: cell-based
compound,measurement,setting,value
O=C1/C(=C/c2cccnc2)CN(S(=O)(=O)c2ccc(C(F)(F)F)cc2)C/C1=C\c1ccccc1C(F)(F)F,Activity,[1],Active
same,Activity,[2],Dose-dependent effect
same,IC50,"[2]; SMMC-7721, 24 h",1730 nM
same,Activity,[3],>70%
same,Activity,[4],40%
same,Activity,[5],Active
same,IC50,[6],15800 nM
same,Activity,[7],Dose-dependent effect
same,Activity,[8],inactive
same,Activity,[9],>70%
same,Activity,[10],Dose-dependent effect
same,IC50,"[10]; HepG2, 24 h",1710 nM
same,inhibition,[11],Dose-dependent effect
same,inhibition,[12],Active
same,Activity,[13],>70%
same,Activity,[14],Active
same,inhibition,[15],Active
same,Activity,[16],Active
same,inhibition (INH),[17],<=15%
same,Activity,[18],Non-Toxic
same,Activity,[19],Dose-dependent effect
same,Activity,[20],Active
same,Activity,[21],Dose-dependent effect
same,IC50,[22],14300 nM
same,Activity,[23],Dose-dependent effect
same,IC50,"[23]; QGY-7703, 24 h",1500 nM
same,Activity,[24],Non-Toxic
same,Activity,[25],Dose-dependent effect
same,Activity,[26],58%
same,Activity,[27],inactive
same,Activity,[28],Dose-dependent effect
same,inhibition,[29],Dose-dependent effect
